The values below come from ChEMBL document CHEMBL4507295 (2021).

The target in assay [1] is D(2) dopamine receptor (Homo sapiens) (UniProt P14416). The conditions noted are these: Compound concentration 10.0 uM.
The target of assay [2] is Voltage-dependent N-type calcium channel subunit alpha-1B (Homo sapiens) (UniProt Q00975). The assay is described as follows: Inhibition of Calcium Channel N-Type at 10 µM in the Eurofins-Panlabs radioligand binding assay (Eurofins_assay_216000). The conditions noted are these: Rattus norvegicus; Compound concentration 10.0 uM.
In assay [3] the target is Cysteinyl leukotriene receptor 1 (Homo sapiens) (UniProt Q9Y271). Nature of the assay: Inhibition of Leukotriene, Cysteinyl CysLT1 at 10 µM in the Eurofins-Panlabs radioligand binding assay (Eurofins_assay_250460). Also noted: ligand concentration 0.3 nM, non-specific ligand with concentration 0.3 µM Leukotriene D4, incubation time 30 min, incubation temperature 25 °C. The conditions noted are these: Compound concentration 10.0 uM.

Assay [4] is described as follows: Inhibition of Atrial Natriuretic Factor (ANF) at 10 µM in the Eurofins-Panlabs radioligand binding assay (Eurofins_assay_211000). The settings on record: Cavia porcellus.
Assay [5] addresses Macrophage metalloelastase (Homo sapiens) (UniProt P39900). The assay is described as follows: Peptidase, Matrix Metalloproteinase-12 (MMP-12) Eurofins-Panlabs enzyme assay. The conditions noted are these: Compound concentration 10.0 uM.
Assay [6] deals with Neprilysin (Homo sapiens) (UniProt P08473). The assay is described as follows: Peptidase, Metalloproteinase, Neutral Endopeptidase Eurofins-Panlabs enzyme assay. The settings on record: Compound concentration 10.0 uM.
The target of assay [7] is Phosphodiesterase PDE1 (Bos taurus) (UniProt Q01061+P14100+A0A3Q1MCV4). The assay is described as follows: Phosphodiesterase PDE1 Eurofins-Panlabs enzyme assay. The settings on record: Compound concentration 100.0 uM. On the set-up: substrate with concentration [3H] cAMP + cAMP, incubation time 20 min, incubation temperature 25 °C. Type of assay: protein assay.
Assay [8] deals with Vasopressin V2 receptor (Homo sapiens) (UniProt P30518). Nature of the assay: Vasopressin V2 Eurofins-Panlabs radioligand binding assay. Also noted: ligand concentration 0.5 nM. The conditions noted are these: Compound concentration 10.0 uM.
For assay [9], the target named is Tyrosine-protein phosphatase non-receptor type 2 (Homo sapiens, UniProt P17706). Nature of the assay: Panlabs assay. On the set-up: compound concentration 10 uM.
In assay [10] the target is GABA-A receptor; alpha-5/beta-3/gamma-2 (Homo sapiens) (UniProt P18507+P28472+P31644). The assay is described as follows: GABA-alpha5beta3gamma2 (Muscimol binding) Eurofins-Panlabs radioligand binding assay. Type of assay: protein-complex assay. Also noted: ligand concentration 8 nM. The settings on record: Compound concentration 10.0 uM.
The target in assay [11] is D(1B) dopamine receptor (Homo sapiens) (UniProt P21918). The conditions noted are these: Compound concentration 10.0 uM.
The target in assay [12] is Alpha-1D adrenergic receptor (Homo sapiens) (UniProt P25100). The conditions noted are these: Compound concentration 10.0 uM.
Assay [13] has as its target Glutamate NMDA receptor (Rattus norvegicus) (UniProt P35439+Q00959+Q00960+Q00961+Q62645+Q8VHN2+Q9R1M7). The conditions noted are these: Compound concentration 10.0 uM.
In assay [14] the target is Histamine H2 receptor (Homo sapiens) (UniProt P25021). The settings on record: Compound concentration 10.0 uM.
For assay [15], the target named is T1, Muscarinic acetylcholine receptor M1 (Homo sapiens) (UniProt P11229).
T1 sequence (whole entry): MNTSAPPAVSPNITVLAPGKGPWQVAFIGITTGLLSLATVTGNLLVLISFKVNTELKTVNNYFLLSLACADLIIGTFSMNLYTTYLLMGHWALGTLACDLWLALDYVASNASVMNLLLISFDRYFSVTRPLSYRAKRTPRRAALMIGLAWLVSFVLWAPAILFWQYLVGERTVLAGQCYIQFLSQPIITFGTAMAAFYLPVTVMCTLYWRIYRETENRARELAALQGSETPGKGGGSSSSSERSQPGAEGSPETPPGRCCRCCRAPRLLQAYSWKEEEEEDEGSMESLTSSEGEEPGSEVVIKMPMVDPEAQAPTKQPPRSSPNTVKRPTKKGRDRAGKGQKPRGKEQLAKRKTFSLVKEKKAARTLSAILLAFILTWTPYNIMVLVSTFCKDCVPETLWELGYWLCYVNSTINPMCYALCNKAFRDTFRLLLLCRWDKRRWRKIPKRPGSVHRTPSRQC
The conditions noted are these: Compound concentration 10.0 uM.

The target of assay [16] is Sodium-dependent noradrenaline transporter (Homo sapiens) (UniProt P23975). The settings on record: Compound concentration 10.0 uM.
Assay [17] has as its target Acetylcholinesterase (Homo sapiens) (UniProt P22303). The settings on record: Compound concentration 10.0 uM.
Assay [18] concerns the target Cannabinoid receptor 2 (Homo sapiens) (UniProt P34972). The conditions noted are these: Compound concentration 10.0 uM.
For the next assay, the species on record is Homo sapiens. The conditions noted are these: Compound concentration 10.0 uM.

Vasopressin V2 receptor (Homo sapiens), sequence (P30518 whole entry): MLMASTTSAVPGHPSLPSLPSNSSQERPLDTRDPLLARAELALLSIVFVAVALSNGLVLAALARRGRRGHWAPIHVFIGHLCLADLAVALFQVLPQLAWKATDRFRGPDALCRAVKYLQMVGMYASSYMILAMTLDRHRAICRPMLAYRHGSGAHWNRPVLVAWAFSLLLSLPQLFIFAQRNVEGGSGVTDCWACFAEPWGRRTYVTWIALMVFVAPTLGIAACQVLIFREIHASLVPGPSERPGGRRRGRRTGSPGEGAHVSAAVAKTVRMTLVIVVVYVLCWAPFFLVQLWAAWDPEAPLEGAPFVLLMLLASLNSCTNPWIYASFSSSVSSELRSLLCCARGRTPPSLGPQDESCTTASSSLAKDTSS
Phosphodiesterase PDE1 (Bos taurus), sequence (Q01061 whole entry): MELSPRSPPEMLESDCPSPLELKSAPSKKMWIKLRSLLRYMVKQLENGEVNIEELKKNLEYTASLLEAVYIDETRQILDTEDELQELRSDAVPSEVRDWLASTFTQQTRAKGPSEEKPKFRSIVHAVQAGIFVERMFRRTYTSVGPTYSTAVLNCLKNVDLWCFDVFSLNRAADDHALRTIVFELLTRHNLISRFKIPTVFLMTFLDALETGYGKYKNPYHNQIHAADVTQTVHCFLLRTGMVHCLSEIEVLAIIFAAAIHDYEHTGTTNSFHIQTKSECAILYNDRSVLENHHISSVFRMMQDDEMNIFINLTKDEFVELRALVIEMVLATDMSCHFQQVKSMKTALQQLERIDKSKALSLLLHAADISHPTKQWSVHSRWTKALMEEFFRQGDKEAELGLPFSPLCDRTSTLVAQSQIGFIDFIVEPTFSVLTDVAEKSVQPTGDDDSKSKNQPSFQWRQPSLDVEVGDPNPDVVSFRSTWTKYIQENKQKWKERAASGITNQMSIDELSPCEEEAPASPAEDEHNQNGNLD
Phosphodiesterase PDE1 (Bos taurus), sequence (P14100 whole entry): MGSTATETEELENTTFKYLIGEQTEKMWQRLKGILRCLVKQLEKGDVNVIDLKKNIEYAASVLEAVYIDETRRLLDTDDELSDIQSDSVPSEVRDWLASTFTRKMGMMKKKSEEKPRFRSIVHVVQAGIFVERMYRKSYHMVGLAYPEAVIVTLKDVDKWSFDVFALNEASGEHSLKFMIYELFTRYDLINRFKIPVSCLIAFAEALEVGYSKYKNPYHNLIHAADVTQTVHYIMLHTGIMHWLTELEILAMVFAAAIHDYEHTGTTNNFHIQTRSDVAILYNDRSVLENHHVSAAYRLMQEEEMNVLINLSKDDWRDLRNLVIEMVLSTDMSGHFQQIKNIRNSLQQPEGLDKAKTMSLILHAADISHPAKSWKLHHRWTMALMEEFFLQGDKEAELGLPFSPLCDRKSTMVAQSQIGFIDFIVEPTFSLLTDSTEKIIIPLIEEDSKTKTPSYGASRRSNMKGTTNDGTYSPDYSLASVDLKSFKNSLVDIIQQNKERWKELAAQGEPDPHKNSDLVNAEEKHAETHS
Phosphodiesterase PDE1 (Bos taurus), sequence (A0A3Q1MCV4 1-648): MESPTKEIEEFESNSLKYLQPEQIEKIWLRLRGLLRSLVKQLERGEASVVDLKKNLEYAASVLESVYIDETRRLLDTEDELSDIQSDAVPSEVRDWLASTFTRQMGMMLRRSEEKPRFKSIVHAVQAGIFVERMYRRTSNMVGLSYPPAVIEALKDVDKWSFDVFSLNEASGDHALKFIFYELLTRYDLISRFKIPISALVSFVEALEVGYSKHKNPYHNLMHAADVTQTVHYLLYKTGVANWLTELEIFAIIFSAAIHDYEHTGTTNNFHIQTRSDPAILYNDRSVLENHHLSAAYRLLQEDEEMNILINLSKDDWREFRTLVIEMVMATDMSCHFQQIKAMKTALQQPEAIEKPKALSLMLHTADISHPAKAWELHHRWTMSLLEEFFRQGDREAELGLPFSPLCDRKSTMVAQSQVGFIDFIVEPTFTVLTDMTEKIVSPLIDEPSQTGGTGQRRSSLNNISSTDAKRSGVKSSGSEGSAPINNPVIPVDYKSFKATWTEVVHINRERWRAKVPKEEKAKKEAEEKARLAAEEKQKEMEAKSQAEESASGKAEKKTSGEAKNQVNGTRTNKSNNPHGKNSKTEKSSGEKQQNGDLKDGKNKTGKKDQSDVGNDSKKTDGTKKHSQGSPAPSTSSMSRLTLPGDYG
Histamine H2 receptor (Homo sapiens), sequence (P25021 whole entry): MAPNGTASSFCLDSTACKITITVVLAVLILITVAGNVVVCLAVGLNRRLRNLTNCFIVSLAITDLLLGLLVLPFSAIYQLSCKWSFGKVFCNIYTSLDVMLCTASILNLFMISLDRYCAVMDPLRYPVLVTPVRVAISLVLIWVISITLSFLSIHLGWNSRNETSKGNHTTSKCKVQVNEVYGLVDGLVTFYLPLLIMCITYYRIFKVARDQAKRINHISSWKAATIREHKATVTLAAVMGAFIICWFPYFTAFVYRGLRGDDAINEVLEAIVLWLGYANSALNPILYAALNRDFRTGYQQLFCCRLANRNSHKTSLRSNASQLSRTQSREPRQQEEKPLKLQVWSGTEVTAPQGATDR
Neprilysin (Homo sapiens), sequence (P08473 whole entry): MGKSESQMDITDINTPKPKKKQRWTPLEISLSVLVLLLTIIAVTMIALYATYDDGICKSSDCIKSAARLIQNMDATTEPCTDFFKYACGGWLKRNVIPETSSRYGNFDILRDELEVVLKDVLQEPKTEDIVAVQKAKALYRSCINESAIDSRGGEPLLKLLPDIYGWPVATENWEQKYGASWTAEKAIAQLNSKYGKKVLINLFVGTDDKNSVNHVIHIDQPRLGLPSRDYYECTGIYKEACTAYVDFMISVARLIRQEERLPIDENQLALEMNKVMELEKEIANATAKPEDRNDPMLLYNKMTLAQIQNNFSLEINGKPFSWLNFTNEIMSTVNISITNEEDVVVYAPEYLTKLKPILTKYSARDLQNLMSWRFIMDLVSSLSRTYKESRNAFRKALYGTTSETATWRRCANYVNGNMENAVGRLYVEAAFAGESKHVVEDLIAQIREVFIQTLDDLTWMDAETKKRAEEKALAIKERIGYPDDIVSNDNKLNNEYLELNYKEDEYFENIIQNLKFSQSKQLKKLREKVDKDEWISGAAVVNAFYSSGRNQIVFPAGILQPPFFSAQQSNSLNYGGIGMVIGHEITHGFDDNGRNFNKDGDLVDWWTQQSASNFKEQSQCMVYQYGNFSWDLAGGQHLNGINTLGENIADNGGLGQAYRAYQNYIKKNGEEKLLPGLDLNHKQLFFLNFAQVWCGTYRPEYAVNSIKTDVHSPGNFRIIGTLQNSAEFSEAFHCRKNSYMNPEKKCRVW
Cannabinoid receptor 2 (Homo sapiens), sequence (P34972 whole entry): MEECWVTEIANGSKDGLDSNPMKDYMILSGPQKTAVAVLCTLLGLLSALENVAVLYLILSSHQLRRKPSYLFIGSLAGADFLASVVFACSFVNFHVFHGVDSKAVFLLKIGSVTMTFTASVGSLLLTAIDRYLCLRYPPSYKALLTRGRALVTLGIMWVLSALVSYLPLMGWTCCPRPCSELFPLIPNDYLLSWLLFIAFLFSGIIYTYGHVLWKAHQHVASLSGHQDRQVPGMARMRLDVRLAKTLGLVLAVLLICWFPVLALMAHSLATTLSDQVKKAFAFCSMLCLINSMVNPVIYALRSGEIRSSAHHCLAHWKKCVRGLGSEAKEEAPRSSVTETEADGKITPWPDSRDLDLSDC
Tyrosine-protein phosphatase non-receptor type 2, sequence (P17706 whole entry): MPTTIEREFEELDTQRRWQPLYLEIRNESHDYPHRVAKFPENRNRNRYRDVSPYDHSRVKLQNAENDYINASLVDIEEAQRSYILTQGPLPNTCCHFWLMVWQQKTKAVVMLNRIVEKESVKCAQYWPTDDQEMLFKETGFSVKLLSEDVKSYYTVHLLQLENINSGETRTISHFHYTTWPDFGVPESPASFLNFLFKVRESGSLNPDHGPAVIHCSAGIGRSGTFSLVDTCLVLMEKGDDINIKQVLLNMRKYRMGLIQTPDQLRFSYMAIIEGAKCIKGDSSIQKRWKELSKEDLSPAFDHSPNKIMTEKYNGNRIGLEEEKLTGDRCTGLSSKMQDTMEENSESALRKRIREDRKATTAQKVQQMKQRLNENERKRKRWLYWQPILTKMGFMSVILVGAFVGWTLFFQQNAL
D(2) dopamine receptor (Homo sapiens), sequence (P14416 whole entry): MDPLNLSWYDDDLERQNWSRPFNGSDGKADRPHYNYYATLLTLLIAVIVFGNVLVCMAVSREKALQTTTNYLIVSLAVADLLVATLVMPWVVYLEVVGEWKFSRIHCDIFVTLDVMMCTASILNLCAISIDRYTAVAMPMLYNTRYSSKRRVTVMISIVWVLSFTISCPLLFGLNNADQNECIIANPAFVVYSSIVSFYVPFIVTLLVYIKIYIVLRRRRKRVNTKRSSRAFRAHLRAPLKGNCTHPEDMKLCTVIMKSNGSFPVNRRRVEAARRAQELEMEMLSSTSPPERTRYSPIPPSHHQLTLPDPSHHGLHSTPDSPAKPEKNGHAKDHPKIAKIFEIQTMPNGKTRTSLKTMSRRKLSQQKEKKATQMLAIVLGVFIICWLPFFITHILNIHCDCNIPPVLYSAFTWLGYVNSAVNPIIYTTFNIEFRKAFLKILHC
Macrophage metalloelastase (Homo sapiens), sequence (P39900 106-470 limits assumed): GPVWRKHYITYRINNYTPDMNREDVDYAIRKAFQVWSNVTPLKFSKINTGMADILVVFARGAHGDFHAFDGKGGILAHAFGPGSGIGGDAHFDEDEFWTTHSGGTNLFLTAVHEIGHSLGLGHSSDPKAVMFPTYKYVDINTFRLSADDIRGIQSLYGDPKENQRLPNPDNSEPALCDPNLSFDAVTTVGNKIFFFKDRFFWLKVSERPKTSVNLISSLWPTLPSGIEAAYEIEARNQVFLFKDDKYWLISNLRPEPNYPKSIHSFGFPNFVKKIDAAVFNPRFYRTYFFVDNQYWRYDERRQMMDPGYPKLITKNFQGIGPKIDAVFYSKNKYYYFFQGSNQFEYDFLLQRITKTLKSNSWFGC

In general, inhibition refers to the drop in the measured response relative to a control, in per cent. As to `N#CC1(c2ccccn2)CCN(Cc2cc(C(=O)N3CCCC3)c(=O)n3ccccc23)CC1`, the inhibition in [1] was -5.66%.

As a reminder, the IC50 is the concentration that inhibits the measured activity by half. Low values mean inhibition by little substance, high ones a need for much substance. Consider `N#CC1(c2ccccn2)CCN(Cc2cc(C(=O)O)c(=O)n3ccccc23)CC1` [MSD-M1PAM], for which the inhibition was -3% in [2]; -5% in assay [3]; 12% in assay [5]; 3% in [6]; 28% in assay [7]; -2% in [8]. In addition, the inhibition was 11% in [10]; -2.87% in assay [11]; -5.73% in [12]; 4% in assay [13]; -3% in assay [14]; 3% in [15]. Also, the inhibition was 8% in assay [16], 1% in assay [17], 0% in assay [18] and 0% in the assay filed under Homo sapiens. Also, in assay [4], the inhibition at 10 µM is given as 1% (not active). Also, in assay [9], the IC50 was 10 µM (not active).
